Patent US8552052B2, “Use of diindolylmethane-related indoles for the treatment and prevention of respiratory syncytial virus associated conditions” (BioResponse, L.L.C., priority 2004, dated 2013)
Entries after “also recorded” stand apart in the source; their conditions may differ.

What was measured:
[1] = test system: RSV A2; assay: RSV infection in cyclophosphamide pre-treated mice (pulmonary titer, histology); type: in vivo; settings: cyclophosphomide pre-treated mice; vs vehicle treated placebo group
Text: Another in vivo model of RSV infection has been developed using mice treated with cylphosphamide to induce immune deficiency and create a standardized receptive host for experimental infection (Sudo et al., 1999, Antivir Chem Chemother. 10:135-9). The technique provides for quantitation of pulmonary viral load following induced infection. This model can be used to assess the impact of daily intraperitoneal injections of DIM and/or an EGFR inhibitor drug (Gefitinib or Erlotinib) on in vivo RSV replication and induced pathology.
Alternatively, mice are treated intraperitoneally with 100 mg of cyclophosphamide (CYP) per kg of body weight 5 days before virus inoculation. The mice are weighed, anesthetized with sodium pentobarbital (50 mg/kg), and inoculated intranasally with approximately 10^5 PFU of RSV A2 in 50 μl (day 0). […]
Alternatively, the removed lungs are homogenized with glass homogenizers with a Teflon pestle (Ikemoto Scientific Technology Co., Ltd., Tokyo, Japan) in 4 ml of Hanks balanced salt solution supplemented with 0.218 M sucrose, 4.4 mM glutamate, 3.8 mM KH2PO4, and 3.2 mM K2HPO4 as described previously (Piazza et al., 1993, J. Virol. 67:1503-1510). […] The numbers of RSV plaques are counted.
Histologic methods and evaluation. […] The stained sections are coded by number and are evaluated blind as to the previous treatment. […]

[2] = test system: RSV infected A549 pulmonary epithelial cells; assay: Phosphohistone (H2A.X Phosphorylation) assay of apoptosis in RSV infected A549 cells; type: cell-based, human; settings: 18 hour treatment, FIG. 1
Protocol: Cell Culture—A549 cells, a tumor cell line with properties of normal airway epithelial cells, were obtained from American Type Culture Collection (ATCC, Manassas, Va.) and incubated at 37° C. in 5% CO2. The cells were cultured in Eagle's minimum essential medium (MEM, Invitrogen) supplemented with 10% fetal bovine serum (HyClone, Logan, Utah) and […] gentamicin. The A549 cells were subcultured by harvesting in 0.12% trypsin no more than 20 times from stock originally designated at pass 70. To minimize effects of exogenous growth factors or cytokines in this system, the supplemented serum concentration was reduced to 0.5% 24 h prior to and during all experiments with RSV infection.
RSV Virus—RSV, strain A2, was obtained from Advanced Biotechnologies Inc. (Columbia, Md.) and was used directly as supplied for all experiments. The viral preparation was tested to have a TCID50 titer of ˜1×10^9 in Hep-2 cells at 7 days. […]
Cell Viability and Death Assays—Induction of Apoptosis by DIM in RSV infected A549 cell was measured according to a Phosphohistone Assay. […] The detection was done by LumiGLO™ chemiluminescent substrate and the plate was read in a microplate luminometer after 10-20 min. Luminescence indicated the extent of apoptosis in the sample examined.

With `c1ccc2c(Cc3c[nH]c4ccccc34)c[nH]c2c1` [DIM, 3,3′-diindolylmethane] the “pathology score on histologic examination” value [1] was “reduced pathology score”, the “pulmonary RSV titers” value [1] was “reduction of pulmonary RSV titers” and the cells undergoing apoptosis ([2]; DIM 70, 210, 700 nM, LY294002 2 and 5 μM) was “accelerated apopotosis in RSV infected cells; also recorded: significant, dose-related increase in cells undergoing apoptosis”. The “Promotion of apoptosis by DIM compared with LY294002” value ([2]; nM DIM) was “more potent than that seen with LY294002”.
